Patent publication US9193744B2, “Heterocyclic nuclear hormone receptor modulators” (AbbVie Inc., priority 2012, dated 2015)
Like-named read-outs stand apart in the source and are kept apart here.

Legend:
[1] = target: T1, Glucocorticoid Receptor (GR) (Homo sapiens, UniProt P04150); assay: GR Fluorescence Polarization Assay (PolarScreen Glucocorticoid Receptor Competitor Assay, Red); conditions: fluorescence polarization binding ranges
T1 construct: purchased Invitrogen P2893
T1 sequence (P04150 1-777): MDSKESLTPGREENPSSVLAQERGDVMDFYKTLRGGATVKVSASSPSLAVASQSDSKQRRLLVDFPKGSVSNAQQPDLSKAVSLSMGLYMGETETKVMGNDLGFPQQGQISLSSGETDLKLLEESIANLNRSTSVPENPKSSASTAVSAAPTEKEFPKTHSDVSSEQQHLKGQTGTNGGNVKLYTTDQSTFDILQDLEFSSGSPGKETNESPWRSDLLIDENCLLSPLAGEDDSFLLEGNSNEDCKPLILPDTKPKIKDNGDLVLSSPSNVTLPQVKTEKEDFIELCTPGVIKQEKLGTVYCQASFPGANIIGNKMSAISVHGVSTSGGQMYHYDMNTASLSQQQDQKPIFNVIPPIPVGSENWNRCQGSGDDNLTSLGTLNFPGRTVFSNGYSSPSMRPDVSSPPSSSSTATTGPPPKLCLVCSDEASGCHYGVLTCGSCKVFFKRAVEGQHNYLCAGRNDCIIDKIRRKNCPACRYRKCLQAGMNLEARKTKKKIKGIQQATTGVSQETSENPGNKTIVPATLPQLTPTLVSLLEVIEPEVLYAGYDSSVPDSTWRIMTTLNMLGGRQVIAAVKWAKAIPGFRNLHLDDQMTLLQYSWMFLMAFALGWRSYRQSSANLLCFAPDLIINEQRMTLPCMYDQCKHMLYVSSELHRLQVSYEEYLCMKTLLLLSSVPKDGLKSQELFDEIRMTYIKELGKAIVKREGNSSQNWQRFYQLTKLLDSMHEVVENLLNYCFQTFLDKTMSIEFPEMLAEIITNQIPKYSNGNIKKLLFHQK
Description: Fluorescence polarization assays were carried out using the PolarScreen™ Glucocorticoid Receptor Competitor Assay, Red from Invitrogen (P2893). The assay buffer was prepared according to the manufacturer's protocol and used to dilute the fluorescent glucocorticoid and GR. Compounds were prepared and serial diluted 1:4 in DMSO. Compound, fluorescent glucocorticoid and GR were added in a final volume of 20 μL and incubated overnight at 4° C. Fluorescent polarization was measured on the PerkinElmer Envision®. Fluorescence polarization binding ranges measured using GR Fluorescence Polarization Assay: […]

[2] = tested on: IL-6; assay: A549 Cell Assay to Measure Inflammation Markers (inhibition of IL-1β-induced IL-6); assay type: cell-based; conditions: A549 cells, read-out: A549 cell assay
Description: A549 Cell Assay to Measure Inflammation Markers
A549 cells were seeded (3E4 cells/well) in 96-well assay plates in culture medium (100 μL/well., F-12 K base media, supplemented with 10% FBS and 100 μ/mL-100 μg/mL Pen-Strep.) After overnight culture in an incubator set to 37° C., 4.9% CO2, and 90% humidity, media was removed from adherent cells by aspiration and replaced with 100 μL/well Assay Medium (F-12 K base media supplemented with 5% charcoal stripped calf sera and 100 U/mL-100 μg/mL Pen-Strep.) Compounds were prepared in DMSO and serial diluted (1:3, 1:4, or 1:5) with DMSO in Dilution Plate(s) to give 10 dilution points for each compound tested. Further dilution (1:250) of compound was made into assay medium and 50 μL/well diluted drug or DMSO/media control was applied to cells. After a 1 h pre-incubation in a temperature, CO2, and humidity controlled incubator, set to 37° C., 50 μL/well of 4 ng/mL IL-1β diluted in assay media, was applied to cultures. Assay plates, with a final volume of 200 μL/well and final concentrations of 0.1% DMSO and 1 ng/mL IL-1β were returned to incubator for a four h incubation period. Next, plates were spun at 183 g (1000 rpm in Beckman/Coulter Allegra 6KR centrifuge) for 10 min. Cell-free supernatant (150 μL/well) was collected and IL-6 was measured by MSD kit, following protocol of manufacturer, and using MSD SECTOR Imager 6000 instrument. Potency of compounds to inhibit IL-6 was determined using the percent reduction of measured IL-6 in wells with compound compared to control wells without drug, and relative to (100% inhibition) positive control compound of 1 μM prednisolone. Results were represented as IC50 and Emax values. To verify that viable cell numbers were similar across plate(s), and not confounding compound IC50 data interpretation, the remaining 50 μL/well of cells and media (after removal of supernatant) were used to run Cell Titer-Glo Assay per directions of manufacturer.

Q: What does the source list for `CC[C@]12CC[C@@](O)(C(F)(F)F)C[C@@H]1CCCc1nc3c(cnn3-c3ccc(F)cc3)cc12` (single isomer, unassigned) [Example 153]?
A: IC50 [1]: 100 to 1000 nM; IC50 ([2]; Homo sapiens): > 10000 nM

Q: How did the IC50 [1] turn out when `CC[C@@]12CC[C@](O)(C(F)(F)F)C[C@H]1CCCc1nc3c(cnn3-c3ccc(F)cc3)cc12` (single isomer, unassigned) [Example 154] was run?
A: < 100 nM

Q: What about the IC50 ([2]; Homo sapiens) of the same molecule?
A: < 100 nM

Q: What does the source list for `C[C@]1(O)CC[C@]2(Cc3ccccn3)c3cc4cnn(-c5ccncc5)c4cc3CCC[C@@H]2C1` [Example 31]?
A: IC50 [1]: 100 to 1000 nM; IC50 [2]: < 100 nM

Q: Which IC50 [1] does the source give for `CCOC[C@@]1(O)CC[C@@]2(Cc3ccccn3)c3cc4cnn(-c5ccc(F)cc5)c4cc3CCC[C@H]2C1` [Example 32] here?
A: < 100 nM

Q: And the IC50 [2]?
A: < 100 nM

Q: What does the source list for `CCOC[C@]1(O)CC[C@]2(Cc3ccccn3)c3cc4cnn(-c5ccc(F)cc5)c4cc3CCC[C@@H]2C1` [Example 33]?
A: IC50 [1]: < 100 nM; IC50 [2]: < 100 nM

Q: Which IC50 [1] does the source give for `CC[C@]12CC[C@@](O)(COC)C[C@H]1CCCc1cc3c(cnn3-c3ccc(F)cc3)cc12` [Example 34] here?
A: < 100 nM

Q: What about the IC50 [2] of the same molecule?
A: > 10000 nM

Q: What does the source list for `CC[C@@]12CC[C@](O)(COC)C[C@@H]1CCCc1cc3c(cnn3-c3ccc(F)cc3)cc12` [Example 35]?
A: IC50 [1]: < 100 nM; IC50 [2]: < 100 nM

Q: How did the IC50 [1] turn out when `COC[C@]1(O)CC[C@]2(Cc3ncccn3)c3cc4cnn(-c5ccc(F)cc5)c4cc3CCC[C@@H]2C1` [Example 36] was run?
A: < 100 nM

Q: And the IC50 [2]?
A: > 10000 nM

Q: For `CC[C@@]12CC[C@](O)(COC)C[C@H]1CCCc1cc3c(cnn3-c3ccc(F)cc3)cc12` [Example 37], which IC50 [1] is on record?
A: < 100 nM

Q: What about the IC50 [2] of the same molecule?
A: < 100 nM

Q: Which results are given for `COC[C@]1(O)CC[C@]2(CC3CC3)c3cc4cnn(-c5ccc(F)cc5)c4cc3CCC[C@@H]2C1` [Example 39]?
A: IC50 [1]: < 100 nM; IC50 [2]: < 100 nM

Q: Which IC50 [1] does the source give for `COC[C@@]1(O)CC[C@@]2(CC3CC3)c3cc4cnn(-c5ccc(F)cc5)c4cc3CCC[C@H]2C1` [Example 40] here?
A: < 100 nM

Q: What about the IC50 [2] of the same molecule?
A: < 100 nM

Q: For `COC[C@@]1(O)CC[C@@]2(Cc3ncccn3)c3cc4cnn(-c5ccc(F)cc5)c4cc3CCC[C@H]2C1` [Example 41], which IC50 [1] is on record?
A: < 100 nM

Q: And the IC50 [2]?
A: < 100 nM

Q: Which results are given for `CC[C@]12CC[C@@](O)(COC)C[C@H]1CCCc1cc3c(cnn3-c3cccnc3)cc12` [Example 43]?
A: IC50 [1]: < 100 nM; IC50 [2]: > 10000 nM

Q: With `CC[C@@]12CC[C@](O)(COC)C[C@@H]1CCCc1cc3c(cnn3-c3cccnc3)cc12` [Example 44] as the molecule, how does the IC50 [1] read?
A: < 100 nM

Q: And the IC50 [2]?
A: < 100 nM

Q: What does the source list for `CC[C@]12CC[C@@](O)(COC)C[C@H]1CCCc1cc3c(cnn3-c3ccccn3)cc12` [Example 46]?
A: IC50 [1]: 100 to 1000 nM; IC50 [2]: > 10000 nM

Q: `CC[C@@]12CC[C@](O)(COC)C[C@@H]1CCCc1cc3c(cnn3-c3ccccn3)cc12` [Example 47] was tested. Which IC50 [1] did it give?
A: < 100 nM

Q: What about the IC50 [2] of the same molecule?
A: < 100 nM

Q: How did the IC50 [1] turn out when `COC[C@]1(O)CC[C@]2(Cc3ccccn3)c3cc4cnn(-c5ccncc5)c4cc3CCC[C@@H]2C1` [Example 48] was run?
A: 100 to 1000 nM

Q: What about the IC50 [2] of the same molecule?
A: < 100 nM

Q: Which IC50 [1] does the source give for `COC[C@@]1(O)CC[C@@]2(Cc3ccccn3)c3cc4cnn(-c5ccncc5)c4cc3CCC[C@H]2C1` [Example 49] here?
A: < 100 nM

Q: And the IC50 [2]?
A: < 100 nM

Q: With `CC[C@]12CC[C@](C)(O)C[C@H]1CCCc1cc3c(cnn3-c3ccc(F)cc3)cc12` [Example 53] as the molecule, how does the IC50 [1] read?
A: < 100 nM

Q: And the IC50 [2]?
A: < 100 nM

Q: Which results are given for `CC[C@@]12CC[C@@](C)(O)C[C@@H]1CCCc1cc3c(cnn3-c3ccc(F)cc3)cc12` [Example 54]?
A: IC50 [1]: < 100 nM; IC50 [2]: < 100 nM

Q: With `C[C@@]1(O)CC[C@@]2(Cc3ncccn3)c3cc4cnn(-c5ccc(F)cc5)c4cc3CCC[C@H]2C1` [Example 55] as the molecule, how does the IC50 [1] read?
A: < 100 nM

Q: What about the IC50 [2] of the same molecule?
A: < 100 nM

Q: Which IC50 [1] does the source give for `C[C@]1(O)CC[C@]2(Cc3ncccn3)c3cc4cnn(-c5ccc(F)cc5)c4cc3CCC[C@@H]2C1` [Example 56] here?
A: 100 to 1000 nM

Q: And the IC50 [2]?
A: > 10000 nM

Q: Which results are given for `C[C@@]1(O)CC[C@@]2(CC3CC3)c3cc4cnn(-c5ccc(F)cc5)c4cc3CCC[C@H]2C1` [Example 57]?
A: IC50 [1]: < 100 nM; IC50 [2]: < 100 nM

Q: Which results are given for `C[C@]1(O)CC[C@]2(CC3CC3)c3cc4cnn(-c5ccc(F)cc5)c4cc3CCC[C@@H]2C1` [Example 58]?
A: IC50 [1]: < 100 nM; IC50 [2]: < 100 nM
